Where two headings read alike, the source gives them in different places.
Molecular target: T1, AauA (Escherichia coli, UniProt Q8X6A6)
T1 construct: gene ECs_0374
Assay: isothermal titration calorimetry
Type: binding

T1 sequence (Q8X6A6 29-328 limits assumed): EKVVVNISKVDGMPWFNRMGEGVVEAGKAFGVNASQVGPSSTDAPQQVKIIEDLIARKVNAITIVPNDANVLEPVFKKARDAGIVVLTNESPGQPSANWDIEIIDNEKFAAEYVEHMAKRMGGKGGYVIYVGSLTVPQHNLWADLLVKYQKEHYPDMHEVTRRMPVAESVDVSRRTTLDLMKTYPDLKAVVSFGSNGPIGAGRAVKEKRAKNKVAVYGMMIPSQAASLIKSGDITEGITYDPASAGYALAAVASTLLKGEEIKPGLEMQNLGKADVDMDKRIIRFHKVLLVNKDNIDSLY

| Structure (SMILES) | Kd | Kd (50 mM HEPES, 150 mM NaCl, pH 7.0, 25 °C, 70 µM AauA, single-site model) |
| --- | --- | --- |
| O=C(CO)[C@H](O)[C@H](O)CO [D-ribulose] | 1.98 ± 0.3 µM |  |
| OC1OC[C@H](O)[C@H](O)[C@H]1O (some centres unmarked) [ʟ-arabinose] |  | 598 ± 132 µM |

Source: PMC12307932, “Convergent evolution of distinct D-ribulose utilisation pathways in attaching and effacing pathogens” (Nature Communications, 2025)
